Experiments:
[1] = molecular target: T1, Thermotoga maritima TrpB variant TmTrpB^triple (P19G, I69V, T292S), SEQ ID NO: 34 (Thermotoga maritima, UniProt P50909, I69V/P19G/T292S); assay: Tryptophan formation from L-serine and indole, kinetics of TmTrpB^triple; format: biochemical
T1 sequence (P50909 with tags, fused parts or gaps P19G/I69V/T292S): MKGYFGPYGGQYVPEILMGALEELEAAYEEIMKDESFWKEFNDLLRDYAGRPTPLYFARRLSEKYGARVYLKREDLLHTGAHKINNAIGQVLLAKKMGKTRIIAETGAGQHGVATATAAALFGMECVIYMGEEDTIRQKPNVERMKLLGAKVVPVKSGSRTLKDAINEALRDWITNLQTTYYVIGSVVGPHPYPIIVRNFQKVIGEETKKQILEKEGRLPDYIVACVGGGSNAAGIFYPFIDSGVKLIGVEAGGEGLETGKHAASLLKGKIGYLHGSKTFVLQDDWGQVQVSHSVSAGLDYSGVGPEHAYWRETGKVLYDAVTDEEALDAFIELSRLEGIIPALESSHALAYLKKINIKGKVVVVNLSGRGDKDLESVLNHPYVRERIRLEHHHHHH
Procedure: Kinetics and UV-Vis Spectroscopy. Data were collected between 550 and 250 nm on a UV1800 Shimadzu spectrophotometer (Shimadzu) using 0.25-20 μM of enzyme in 200 mM potassium phosphate (pH 8.0) in a quartz cuvette. Samples were incubated at 75° C. for >3 min to ensure a stable temperature was reached. PfTrpB activity (kcat) was measured by monitoring tryptophan formation at 290 nm using Δe290=1.89 mM^−1·cm^−1.
Cloning, expression, and purification of the different orthologs. The genes encoding AfTrpB (UNIPROT ID O28672), TmTrpB (UNIPROT ID P50909) and EcTrpB (UNIPROT ID P0A879) were obtained from IDT and cloned into pET22(b)+ using Gibson Assembly. Protein expression was carried out in E. coli BL21 E. cloni Express cells (Lucigen) by inoculating 10-mL Terrific Broth (with 100 μg/mL ampicillin (TBamp)) with a single colony and incubated over night at 37° C. and 250 rpm. These overnight cultures were used to scale up to 500-mL TBamp expression cultures, which were grown by shaking at 250 rpm and 37° C. for ˜3 h or until an OD600 of 0.8 was reached. […]
The next homolog, TmTrpB, was examined. […] The variants without the T292S mutation lacked this probative absorbance peak, but the decrease at 428 nm and concomitant increase at 350 nm are consistent with a similar, though less pronounced activation.

[2] = system: Thermotoga maritima TrpB, wild type (literature); conditions: kinetics measured at 80° C., cited from earlier work
[3] = system: Thermococcus kodakarensis TrpB, wild type (literature); conditions: cited from earlier work
[4] = molecular target: T2, Archaeoglobus fulgidus TrpB variant AfTrpB^0B2 (P25L, E30G, I80V, F285S, T303S, T332A), SEQ ID NO: 22 (Archaeoglobus fulgidus, UniProt O28672, I80V/L285S/P25L/P30G/T303S/T332A); assay: Tryptophan formation from L-serine and indole, kinetics of AfTrpB^0B2
T2 sequence (O28672 with tags, fused parts or gaps P25L/P30G/I80V/L285S/T303S/T332A): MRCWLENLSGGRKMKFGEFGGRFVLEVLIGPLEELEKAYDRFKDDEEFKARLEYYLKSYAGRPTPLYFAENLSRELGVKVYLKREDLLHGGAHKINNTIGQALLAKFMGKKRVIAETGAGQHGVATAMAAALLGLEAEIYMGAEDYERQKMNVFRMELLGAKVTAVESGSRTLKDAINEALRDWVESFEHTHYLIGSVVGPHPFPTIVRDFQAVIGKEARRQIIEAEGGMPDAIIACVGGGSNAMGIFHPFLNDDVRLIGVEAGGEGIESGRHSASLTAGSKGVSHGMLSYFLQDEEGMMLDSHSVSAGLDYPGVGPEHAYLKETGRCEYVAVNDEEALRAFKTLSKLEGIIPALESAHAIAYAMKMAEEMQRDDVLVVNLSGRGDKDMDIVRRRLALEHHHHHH

c1ccc2[nH]ccc2c1 [indole]
kcat ([1]; 75° C.): 9.8 s⁻¹ | increase in kcat ([1]; with respect to wild type): 8 fold | kcat [2]: 4.2 s⁻¹ | Km ([2]; read-out: KM indole): 40 µM | kcat [3]: 1.04 ± 0.03 s⁻¹ | Km ([3]; read-out: KM indole): 63 ± 5 µM | kcat ([4]; 60° C.): 0.51 s⁻¹ | increase in kcat ([4]; compared to wild type): 7 fold
